Tests used:
Format in all cases: biochemical
human NPP4 = target: T1, human NPP4 (Homo sapiens, UniProt Q9Y6X5); experiment: NPP4 luminescence-based assay, Ap4A as substrate; conditions: 20 µg/mL (12 µM)
T1 construct: as a substrate and human soluble NPP4; made in house
T1 sequence (Q9Y6X5 16-407 limits assumed): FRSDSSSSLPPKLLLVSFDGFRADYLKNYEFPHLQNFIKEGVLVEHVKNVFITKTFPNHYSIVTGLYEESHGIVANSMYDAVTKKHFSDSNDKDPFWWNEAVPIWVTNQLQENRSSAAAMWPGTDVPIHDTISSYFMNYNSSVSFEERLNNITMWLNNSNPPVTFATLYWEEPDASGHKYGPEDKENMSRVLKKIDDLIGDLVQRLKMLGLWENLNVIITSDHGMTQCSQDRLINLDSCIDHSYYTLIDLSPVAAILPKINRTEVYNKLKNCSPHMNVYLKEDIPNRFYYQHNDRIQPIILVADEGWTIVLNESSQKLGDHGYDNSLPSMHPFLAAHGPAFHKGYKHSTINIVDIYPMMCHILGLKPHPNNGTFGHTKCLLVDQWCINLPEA
Description: Selectivity studies on NPP4 were performed using a published luminescence-based assay versus 20 μM of diadenosine tetraphosphate (Ap4A) as a substrate and human soluble NPP4 ([24]). The assay buffer consisted of 10 mM HEPES, 1 mM MgCl2, and 2 mM CaCl2 (pH 8.00). The enzyme reaction was started by adding 0.14 μg of purified human NPP4 to the reaction mixture, which was incubated at 37°C for 90 min. The released product ATP was quantified using the luciferin-luciferase reaction. The firefly luciferase reacts with D-luciferin in the presence of the formed ATP and Mg^2+. The resulting luminescence is a measure of the enzymatic activity, and the luminescence was read at 560 nm using a microplate reader (BMG PheraStar). Three independent experiments were performed, each in duplicate measurements; positive and negative controls were included.

human NPP5 = target: T2, human NPP5 (Homo sapiens, UniProt Q9UJA9); experiment: NPP5 colorimetric assay, p-Nph-5'-TMP as substrate; conditions: 20 µg/mL (12 µM)
T2 sequence (Q9UJA9 25-477): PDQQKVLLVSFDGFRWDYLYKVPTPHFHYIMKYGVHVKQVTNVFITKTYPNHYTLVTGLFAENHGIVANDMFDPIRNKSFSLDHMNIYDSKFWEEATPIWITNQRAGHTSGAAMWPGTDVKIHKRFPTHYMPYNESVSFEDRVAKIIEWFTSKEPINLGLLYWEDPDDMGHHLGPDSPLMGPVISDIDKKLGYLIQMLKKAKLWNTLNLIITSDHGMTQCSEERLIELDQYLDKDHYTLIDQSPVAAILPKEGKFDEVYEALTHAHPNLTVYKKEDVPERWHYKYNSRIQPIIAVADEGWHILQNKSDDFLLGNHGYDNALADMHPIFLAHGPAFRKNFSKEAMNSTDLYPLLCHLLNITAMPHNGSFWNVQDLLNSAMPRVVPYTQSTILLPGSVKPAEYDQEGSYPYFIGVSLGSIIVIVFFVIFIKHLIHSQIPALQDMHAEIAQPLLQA
Description: Compounds 1, 2, 5, 6, and 7 were screened at different concentrations using 400 μM of p-nitrophenyl thymidine monophosphate (p-Nph-5´-TMP) as substrate to study potential inhibition of NPP3 and NPP5 using a colorimetric assay as previously described ([21]). Soluble and purified human NPP3, prepared as previously described ([22]), and human NPP5 ([23]) were diluted in the assay buffer (50 mM TRIS HCl, 2 mM CaCl2, and 0.2 mM ZnCl2, pH 9.00), and 0.09 µg of NPP3, or 0.4 µg of NPP5 were employed. The mixtures were incubated for 30 min at 37°C in case of NPP3, and for 100 min at 37°C in case of NPP5, and the reactions were subsequently terminated by adding 20 μL of 1.0 N aq. NaOH solution. The assay is based on the enzymatic ester hydrolysis of p-Nph-5’-TMP which results in the formation of the yellow p-nitrophenolate anion. The absorption was measured at 400 nm using a BMG PheraStar FS plate reader (BMG Labtech GmbH, Ortenberg, Germany). Each analysis was repeated three times with triplicate measurements.

human NTPDase1 (CD39) = target: T3, human NTPDase1 (CD39) (Homo sapiens, UniProt P49961); experiment: NTPDase CE-based assay, NTPDase1; conditions: 20 µg/mL (12 µM); read-out: NTPDase1 inhibition, selectivity study
T3 construct: made in house; host or cells: COS-7 cells
T3 sequence (P49961 1-510): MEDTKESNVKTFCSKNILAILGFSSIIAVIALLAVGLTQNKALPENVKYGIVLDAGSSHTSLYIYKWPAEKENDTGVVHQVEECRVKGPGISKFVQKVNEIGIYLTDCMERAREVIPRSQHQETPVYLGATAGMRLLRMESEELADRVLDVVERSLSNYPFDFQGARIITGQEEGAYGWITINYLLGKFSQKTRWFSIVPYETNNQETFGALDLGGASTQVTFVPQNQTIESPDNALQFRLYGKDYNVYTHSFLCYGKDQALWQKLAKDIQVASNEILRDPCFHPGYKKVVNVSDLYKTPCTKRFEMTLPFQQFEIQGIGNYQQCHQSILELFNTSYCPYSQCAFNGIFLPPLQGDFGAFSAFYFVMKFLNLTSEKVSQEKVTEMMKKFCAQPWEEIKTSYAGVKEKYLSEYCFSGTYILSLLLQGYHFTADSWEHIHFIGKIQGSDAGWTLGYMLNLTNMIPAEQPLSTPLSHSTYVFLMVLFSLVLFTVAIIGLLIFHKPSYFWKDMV
Description: For monitoring the activity of human NTPDases (subtypes 1, 2, 3 and 8) in the presence of test compounds, a CE-based assay system was used, according to a published procedure ([11], [25]). The following concentrations of test compounds were investigated in initial screening studies: 63 IU/mL of compounds 1 and 2, 30 µM of compound 6. For selectivity studies, the following concentration were employed: 50 IU/mL of 1, 12 µM of 6, and 48 µM of 7. The amount of enzyme was selected according to previously performed enzymatic titration, and adjusted to ensure a 10–20% conversion rate. Enzymes were obtained by transfection of COS-7 cells using plasmids encoding human NTPDase1 (GenBank accession number U87967) ([26]), NTPDase2 (NM_203468) ([27]), a kind gift of Dr. A.F. Knowles (San Diego, CA), NTPDase3 (AF034840) ([28]), a kind gift of Dr. T.L. Kirley (Cincinnati, OH) and human NTPDase8 (AY430414) ([29]) and purified as previously described ([30], [31]). The reaction buffer consisted of 10 mM HEPES, 2 mM CaCl2, and 1 mM MgCl2, pH 7.4. In the CE assay, the selected substrate concentration (ATP) was 100 µM for all studied human NTPDases (-1, -2, -3 and -8). […] The released products were separated by CE and quantified by their UV-absorption at 260 nm with ADP and AMP as external standards, as previously described ([11]); positive and negative controls were included.

- NPP4 inhibition, selectivity study (human NPP4): no effect
- NPP5 inhibition, selectivity study (human NPP5): no effect
- inhibition at 12 µM (human NTPDase1 (CD39)): ~35%
Compound: CO[C@H]1O[C@H](COS(=O)(=O)O)[C@@H](O[C@@H]2O[C@@H](C(=O)O)[C@@H](O[C@H]3O[C@H](COS(=O)(=O)O)[C@@H](O[C@@H]4O[C@H](C(=O)O)[C@@H](O[C@H]5O[C@H](COS(=O)(=O)O)[C@@H](O)[C@H](O)[C@H]5NS(=O)(=O)O)[C@H](O)[C@H]4O)[C@H](OS(=O)(=O)O)[C@H]3NS(=O)(=O)O)[C@H](O)[C@H]2OS(=O)(=O)O)[C@H](O)[C@H]1NS(=O)(=O)O [Compound 6, Fondaparinux]
